These results are taken from patent US7148228B2, “Pyrazolopyrimidines and related analogs as HSP90-inhibitors” (Conforma Therapeutics Corporation, priority 2003, dated 2006).

The subject of test [1] is rHSP90 in the MCF7 cell lysates. Description: Cell lysate binding assay (biotin-GM competition). The note with it: concentration for 50% inhibition of biotin-GM binding to rHSP90 in MCF7 cell lysates. As to the method:
MCF7 breast carcinoma cell lysates were prepared by douncing in lysing buffer (20 mM HEPES, pH 7.3, 1 mM EDTA, 5 mM MgCl2, 100 mM KCl), and then incubated with or without test compound for 30 mins at 4° C., followed by incubation with biotin-GM linked to BioMag™ streptavidin magnetic beads (Qiagen) for 1 hr at 4° C. The tubes were placed on a magnetic rack, and the unbound supernatant removed. The magnetic beads were washed three times in lysis buffer and boiled for 5 mins at 95° C. in SDS-PAGE sample buffer. Samples were analyzed on SDS protein gels, and Western blots done for rHSP90. Bands in the Western Blots were quantitated using the Bio-rad Fluor-S MultiImager, and the % inhibition of binding of rHSP90 to the biotin-GM was calculated.
The IC50 reported is the concentration of test compound needed to achieve 50% inhibition of the biotin-GM binding to rHSP90 in the MCF7 cell lysates.

The next test concerns HER2/Neu protein. Put plainly: HER2 degradation assay. It counts as cell-based. As to conditions: Homo sapiens; 50% degradation of HER2/Neu protein, MCF7 cells, 16 h incubation. As to the method:
MCF7 breast carcinoma cells (ATCC) were grown in Dulbecco's modified Eagle's medium (DMEM) containing 10% fetal bovine serum (FBS) and 10 mM HEPES, and plated in 24 well plates (50% confluent). Twenty-four hrs later (cells are 65–70% confluent), test compounds were added and incubated overnight for 16 h. […] The wells were washed with 1 mL phosphate buffered saline (PBS), and 200 μL trypsin was added to each well. After trypsinization was complete, 50 μL of FBS was added to each well. Then 200 μL cells was transferred to 96 well plates. The cells were pipetted up and down to obtain a single cell suspension. The plates were centrifuged at 2,500 rpm for 1 min using a Sorvall Legend RT™ tabletop centrifuge (Kendro Laboratory Products, Asheville, N.C.). The cells were then washed once in PBS containing 0.2% BSA and 0.2% sodium azide (BA buffer). Phycoerythrin (PE) conjugated anti HER2/Neu antibody (Becton Dickinson, #340552), or PE conjugated anti-keyhole limpet hemacyanin [KLH] (Becton Dickinson, #340761) control antibody was added at a dilution of 1:20 and 1:40 respectively (final concentration was 1 μg/mL) and the cells were pipeted up and down to form a single cell suspension, and incubated for 15 mins. The cells were washed twice with 200 μL BA buffer, and resuspended in 200 μL BA buffer, and transferred to FACSCAN tubes with an additional 250 μL BA buffer. Samples were analyzed using a FACSCalibur™ flow cytometer (Becton Dickinson, San Jose, Calif.) equipped with Argon-ion laser that emits 15 mW of 488 nm light for excitation of the PE fluorochrome. 10,000 events were collected per sample. A fluorescence histogram was generated and the mean fluorescence intensity (MFI) of each sample was determined using Cellquest software. The background was defined as the MFI generated from cells incubated with control IgG-PE, and was subtracted from each sample stained with the HER2/Neu antibody. Cells incubated with DMSO was always done as untreated controls since the compounds were resuspended in DMSO. Percent degradation of HER2 was calculated as follows: % HER2 degraded=[(MFI untreated cells−MFI treated cells)/MFI untreated cell]×100
IC50 is defined as the concentration at which there was 50% degradation of the HER2/Neu protein.

Test [2] concerns MCF7 breast carcinoma cells. Description: MTS assay. In kind it is cell-based. The note with it: Homo sapiens, concentration giving 50% viable cell number. As to the method:
MTS assays measures the cytotoxicity of geldanamycin derivatives. MTS (3-(4,5-dimethylthiazol-2-yl)-5-(3-carboxymethoxyphenyl)-2-(4-sulfophenyl)-2H-tetrazolium is a tetrazolium dye that is converted to a formazan product by dehydrogenase enzymes of metabolically active cells (Corey, A. et al. “Use of an aqueous soluble tetrazolium/formazan assay for cell growth assays in culture,” Cancer Commun. 1991, 3, 207–212). Cells were seeded in 96 well plates at 2000 cells/well and allowed to adhere overnight in Dulbecco's modified Eagle's medium supplemented with 10% fetal bovine serum. The final culture volume was 100 μl. Viable cell number was determined by using the Celltiter 96 AQueous Non-radioactive Cell Proliferation Assay (Promega, Madison Wis.). The MTS/PMS (phenazine methosulfate) solution was mixed at a ratio of 20:1, and 20 μL was added per well to 100 μl of culture medium. After 2–4 hours, the formation of the formazan product was measured at 490 nm absorbance using a multiwell plate spectrophotometer. Background was determined by measuring the Abs 490 nm of cell culture medium and MTS-PMS in the absence of cells and was subtracted from all values. Percent viable cells was calculated as follows: % viable cells=(Abs at 490 nm treated cells/Abs at 490 nm untreated cells)×100
The effect of selected compounds of the invention on MCF7 breast carcinoma cells according to the MTS assay is summarized in Table 2. IC50 was defined as the concentration of the compound which gave rise to 50% viable cell number.

Regarding `COc1c(C)cnc(Cn2ncc3c(Cl)nc(N)nc32)c1C` [Example 7, 4-Chloro-1-(4-methoxy-3,5-dimethyl-pyridin-2-ylmethyl)-1H-pyrazolo[3,4-d]pyrimidin-6-ylamine], the IC50 in test [1] was 0.14 µM; in the test with HER2/Neu protein, 0.05 µM; in test [2], 0.13 µM.

In the case of `COc1c(C)c(Cl)nc(Cn2ncc3c(Cl)nc(N)nc32)c1C` [Example 8, 4-Chloro-1-(6-chloro-4-methoxy-3,5-dimethyl-pyridin-2-ylmethyl)-1H-pyrazolo[3,4-d]pyrimidin-6-ylamine], the IC50 is 0.14 µM in the test on HER2/Neu protein and 0.5 µM in test [2].

In the case of `Cc1cnc(Cn2ncc3c(Cl)nc(N)nc32)c(C)c1Cl` [Example 9, 4-Chloro-1-(4-chloro-3,5-dimethyl-pyridin-2-ylmethyl)-1H-pyrazolo[3,4-d]pyrimidin-6-ylamine], the IC50 turned out to be 0.09 µM with HER2/Neu protein and 0.3 µM in test [2].

Turning to `Cc1cnc(Cn2ncc3c(Cl)nc(N)nc32)c(C)c1Br` [Example 14, 1-(4-Bromo-3,5-dimethyl-pyridin-2-ylmethyl)-4-chloro-1H-pyrazolo[3,4-d]pyrimidin-6-ylamine], the IC50 amounted to 0.11 µM in test [1], 0.09 µM in the test on HER2/Neu protein and 1 µM in test [2].

Consider `Cc1c[n+]([O-])c(Cn2ncc3c(Cl)nc(N)nc32)c(C)c1Br` [Example 15, 1-(4-Bromo-3,5-dimethyl-1-oxy-pyridin-2-ylmethyl)-4-chloro-1H-pyrazolo[3,4-d]pyrimidin-6-ylamine], for which the IC50 in the test on HER2/Neu protein turned out to be 0.9 µM.

With `COc1c(C)cnc(Cn2nc(C)c3c(Cl)nc(N)nc32)c1C` [Example 23, 4-Chloro-1-(4-methoxy-3,5-dimethyl-pyridin-2-ylmethyl)-3-methyl-1H-pyrazolo[3,4-d]pyrimidin-6-ylamine], the IC50 with HER2/Neu protein turned out to be 0.04 µM; in test [2], 0.1 µM.

With `Cc1c[n+]([O-])c(Cn2nc(C)c3c(Cl)nc(N)nc32)c(C)c1Br` [Example 24, 1-(4-Bromo-3,5-dimethyl-1-oxy-pyridin-2-ylmethyl)-4-chloro-3-methyl-1H-pyrazolo[3,4-d]pyrimidin-6-ylamine], the IC50 in the test on HER2/Neu protein stood at 0.03 µM; in test [2], 1 µM.

Regarding `Cc1c[n+]([O-])c(Cn2nc(C)c3c(Cl)nc(N)nc32)c(C)c1Cl` [Example 25, 4-Chloro-1-(4-chloro-3,5-dimethyl-1-oxy-pyridin-2-ylmethyl)-3-methyl-1H-pyrazolo[3,4-d]pyrimidin-6-ylamine], the results for the IC50 (in the test on HER2/Neu protein; in test [2]) were 0.03 µM and 0.3 µM, respectively.

On to `Cc1cnc(Cn2nc(C)c3c(Cl)nc(N)nc32)c(C)c1Cl` [Example 26, 4-Chloro-1-(4-chloro-3,5-dimethyl-pyridin-2-ylmethyl)-3-methyl-1H-pyrazolo[3,4-d]pyrimidin-6-ylamine], for which the IC50 was 0.09 µM in test [1] and 0.05 µM with HER2/Neu protein.

Consider `Cc1cnc(Cn2nc(C)c3c(Cl)nc(N)nc32)c(C)c1Br` [Example 28, 1-(4-Bromo-3,5-dimethyl-pyridin-2-ylmethyl)-4-chloro-3-methyl-1H-pyrazolo[3,4-d]pyrimidin-6-ylamine], for which the values for the IC50 (in the test with HER2/Neu protein; in test [2]) were 0.04 µM and 1 µM, respectively.

On to `CCc1nn(Cc2ncc(C)c(OC)c2C)c2nc(N)nc(Cl)c12` [Example 29, 4-Chloro-3-ethyl-1-(4-methoxy-3,5-dimethyl-pyridin-2-ylmethyl)-1H-pyrazolo[3,4-d]pyrimidin-6-ylamine], for which the IC50 in test [1] worked out at 0.1 µM; with HER2/Neu protein it was 0.85 µM; in test [2], 1 µM.

For the compound `CCc1nn(Cc2ncc(C)c(Cl)c2C)c2nc(N)nc(Cl)c12` [Example 30, 4-Chloro-1-(4-chloro-3,5-dimethyl-pyridin-2-ylmethyl)-3-ethyl-1H-pyrazolo[3,4-d]pyrimidin-6-ylamine], the results for the IC50 (in the test on HER2/Neu protein; in test [2]) were 0.11 µM and 1 µM, respectively.

As to `COc1c(C)cnc(Cn2nc(C(C)C)c3c(Cl)nc(N)nc32)c1C` [Example 31, 4-Chloro-3-isopropyl-1-(4-methoxy-3,5-dimethyl-pyridin-2-ylmethyl)-1H-pyrazolo[3,4-d]pyrimidin-6-ylamine], the IC50 was determined as 0.05 µM in the test with HER2/Neu protein and 0.3 µM in test [2].

Regarding `COc1c(C)cnc(Cn2nc(-c3ccccc3)c3c(Cl)nc(N)nc32)c1C` [Example 32, 4-Chloro-1-(4-methoxy-3,5-dimethyl-pyridin-2-ylmethyl)-3-phenyl-1H-pyrazolo[3,4-d]pyrimidin-6-ylamine], the IC50 amounted to 0.04 µM in the test with HER2/Neu protein and 0.08 µM in test [2].

Turning to `Cc1cnc(Cn2nc(-c3ccccc3)c3c(Cl)nc(N)nc32)c(C)c1Cl` [Example 33, 4-Chloro-1-(4-chloro-3,5-dimethyl-pyridin-2-ylmethyl)-3-phenyl-1H-pyrazolo[3,4-d]pyrimidin-6-ylamine], the IC50 was found to be 0.16 µM in the test with HER2/Neu protein and 0.6 µM in test [2].

Take `Cc1cnc(Cn2nc(-c3ccccc3)c3c(Cl)nc(N)nc32)c(C)c1Br` [Example 34, 1-(4-Bromo-3,5-dimethyl-pyridin-2-ylmethyl)-4-chloro-3-phenyl-1H-pyrazolo[3,4-d]pyrimidin-6-ylamine]: the half-inhibitory concentration (IC50) with HER2/Neu protein is 0.12 µM; in test [2], 1 µM.

With `Cc1c[n+]([O-])c(Cn2nc(-c3ccccc3)c3c(Cl)nc(N)nc32)c(C)c1Cl` [Example 35, 4-Chloro-1-(4-chloro-3,5-dimethyl-1-oxy-pyridin-2-ylmethyl)-3-phenyl-1H-pyrazolo[3,4-d]pyrimidin-6-ylamine], the IC50 in test [1] turned out to be 0.08 µM; in the test on HER2/Neu protein it was 0.02 µM; in test [2], 1 µM.
